Test results published in patent US20220313701A1, “MODULATORS OF TREX1” (Constellation Pharmaceuticals, Inc., priority 2019, published 2022).

Columns and labels:
[1] = target: T1, full length human TREX1 (Homo sapiens, UniProt Q9NSU2); test: TREX1 Biochemical Assay (fluorescence assay, degradation of dsDNA substrate); details: 150 pM TREX1, 60 nM dsDNA substrate, 25 minutes at room temperature
T1 construct: N-terminally His-Tev tagged full length human TREX1; His-Tev (His tag with TEV site) (N); made in house; host or cells: E. coli
T1 sequence (Q9NSU2 1-314): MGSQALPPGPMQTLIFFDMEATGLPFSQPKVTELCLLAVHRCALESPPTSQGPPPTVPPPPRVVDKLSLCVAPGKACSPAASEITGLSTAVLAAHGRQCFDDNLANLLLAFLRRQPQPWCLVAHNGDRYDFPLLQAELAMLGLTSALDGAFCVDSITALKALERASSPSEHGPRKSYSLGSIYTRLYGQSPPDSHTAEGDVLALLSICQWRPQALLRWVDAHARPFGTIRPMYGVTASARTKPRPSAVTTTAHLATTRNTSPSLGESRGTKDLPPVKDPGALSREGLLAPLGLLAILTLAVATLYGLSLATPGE
Outline: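 N-terminally His-Tev-tagged enzyme expressed in E. coli, 150 pM, with 60 nM dual-labelled dsDNA (TEX615/quencher) in pH 7.4 Tris buffer with MgCl2, 1% DMSO; 10-point dose-response, 25 min at room temperature, then EDTA quench. Fluorescence at 615 nm (excitation 570 nm); IC50 from four-parameter fit against pre-quenched and no-inhibitor controls.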

[2] = target: T2, human TREX2 (residues M44-A279) (Homo sapiens, UniProt Q9BQ50); test: TREX2 Biochemical Assay (fluorescence assay, degradation of dsDNA substrate); details: 2.5 nM TREX2, 60 nM dsDNA substrate, 25 minutes at room temperature
T2 construct: human TREX2 (residues M44-A279, expressed in E. coli); His-Tev (His tag with TEV site) (N); made in house; host or cells: E. coli
T2 sequence (Q9BQ50 44-279 isoform Q9BQ50-1): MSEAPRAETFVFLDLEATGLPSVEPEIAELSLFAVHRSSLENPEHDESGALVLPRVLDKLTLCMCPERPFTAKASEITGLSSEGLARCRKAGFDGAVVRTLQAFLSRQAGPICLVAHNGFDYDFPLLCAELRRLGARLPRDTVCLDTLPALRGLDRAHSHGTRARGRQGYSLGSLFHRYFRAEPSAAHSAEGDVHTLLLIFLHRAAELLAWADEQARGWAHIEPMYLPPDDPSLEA
Outline: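 Final conditions: 2.5 nM His-Tev-tagged TREX2 (E. coli-expressed), 60 nM fluorophore/quencher-labelled dsDNA, 50 mM Tris pH 7.4, 150 mM NaCl, 100 mM MgCl2, 1% DMSO; 10-point compound dose-response. Incubated 25 min at room temperature, then EDTA-quenched; fluorescence read at ex 570/em 615 nm. IC50 from four-parameter fit against pre-quenched and no-inhibitor controls.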

IC50 [1] [µM]	IC50 [2] [µM]	Structure (SMILES)
1 to 10	> 100	O=C(NCC(O)c1ccccc1)c1cncc(N2CCC(O)(c3ccc(F)cc3)CC2)n1 (centres unmarked) [Example 71, 6-(4-(4-fluorophenyl)-4-hydroxypiperidin-1-yl)-N-(2-hydroxy-2-phenylethyl)pyrazine-2-carboxamide]
1 to 10	> 100	Cc1cnn(-c2cncc(N3CCC(O)(c4ccc(F)cc4)CC3)n2)c1 [Example 72, 4-(4-fluorophenyl)-1-(6-(4-methyl-1H-pyrazol-1-yl)pyrazin-2-yl)piperidin-4-ol]
> 10	> 100	OC1(c2ccccc2)CCN(c2cncc(-n3cccn3)n2)CC1 [Example 73, 1-(6-(1H-pyrazol-1-yl)pyrazin-2-yl)-4-phenylpiperidin-4-ol]
> 10	> 100	OC1(c2ccccn2)CCN(c2cncc(-n3cccn3)n2)CC1 [Example 74, 1-(6-(1H-pyrazol-1-yl)pyrazin-2-yl)-4-(pyridin-2-yl)piperidin-4-ol]
> 10	> 100	OC1(c2cccnc2)CCN(c2cncc(-n3cccn3)n2)CC1 [Example 75, 1-(6-(1H-pyrazol-1-yl)pyrazin-2-yl)-4-(pyridin-3-yl)piperidin-4-ol]
> 10	> 100	OC1(c2ccncc2)CCN(c2cncc(-n3cccn3)n2)CC1 [Example 76, 1-(6-(1H-pyrazol-1-yl)pyrazin-2-yl)-4-(pyridin-4-yl)piperidin-4-ol]
> 10	> 100	OC1(c2ccc(F)cc2)CCN(c2cncc(N3CCCC3)n2)CC1 [Example 78, 4-(4-fluorophenyl)-1-(6-(pyrrolidin-1-yl)pyrazin-2-yl)piperidin-4-ol]
1 to 10	> 100	OC1(c2ccc(F)cc2)CCN(c2cccc(-n3cccn3)n2)CC1 [Example 79, 1-(6-(1H-pyrazol-1-yl)pyridin-2-yl)-4-(4-fluorophenyl)piperidin-4-ol]
1 to 10	> 100	OC1(c2ccc(F)cc2)CCN(c2nccc(-n3cccn3)n2)CC1 [Example 80, 1-(4-(1H-pyrazol-1-yl)pyrimidin-2-yl)-4-(4-fluorophenyl)piperidin-4-ol]
1 to 10	> 100	OC1(c2ccc(F)cc2)CCN(c2ccc3nccn3n2)CC1 [Example 81, 4-(4-fluorophenyl)-1-(imidazo[1,2-b]pyridazin-6-yl)piperidin-4-ol]
1 to 10	> 100	OC1(c2ccc(F)cc2)CCN(c2cnc3ccccc3n2)CC1 [Example 82, 4-(4-fluorophenyl)-1-(quinoxalin-2-yl)piperidin-4-ol]
> 10	> 100	OC1(c2ccc(F)cc2)CCN(c2ccc3ccccc3n2)CC1 [Example 83, 4-(4-fluorophenyl)-1-(quinolin-2-yl)piperidin-4-ol]
1 to 10	> 100	OC1(c2ccc(F)cc2)CCN(c2cncc(Cl)n2)CC1 [Example 84, 1-(6-chloropyrazin-2-yl)-4-(4-fluorophenyl)piperidin-4-ol]
1 to 10	> 100	COc1cc(N2CCC(O)(c3ccc(F)cc3)CC2)ncn1 [Example 85, 4-(4-fluorophenyl)-1-(6-methoxypyrimidin-4-yl)piperidin-4-ol]
> 10	> 100	OC1(c2ccc(F)cc2)CCN(c2ccccn2)CC1 [Example 86, 4-(4-fluorophenyl)-1-(pyridin-2-yl)piperidin-4-ol]
1 to 10	> 100	Cc1nn(C)cc1-c1cc(N2CCC(O)(c3ccc(F)c(F)c3)CC2)cnn1 [Example 87, 4-(3,4-difluorophenyl)-1-(6-(1,3-dimethyl-1H-pyrazol-4-yl)pyridazin-4-yl)piperidin-4-ol]
0.1 to 1	> 100	Cc1nn(C)cc1-c1cnnc(N2CCC(O)(c3ccc(F)c(F)c3)CC2)c1 [Example 88, 4-(3,4-difluorophenyl)-1-(5-(1,3-dimethyl-1H-pyrazol-4-yl)pyridazin-3-yl)piperidin-4-ol]
1 to 10	> 100	Cc1ncc(-c2cnn(C)c2)nc1N1CCC(O)(c2ccc(F)c(F)c2)CC1 [Example 89, 4-(3,4-difluorophenyl)-1-(3-methyl-6-(1-methyl-1H-pyrazol-4-yl)pyrazin-2-yl)piperidin-4-ol]
0.1 to 1	> 100	Cc1ncc(N2CCC(O)(c3ccc(F)c(F)c3)CC2)nc1-c1cnn(C)c1 [Example 90, 4-(3,4-difluorophenyl)-1-(5-methyl-6-(1-methyl-1H-pyrazol-4-yl)pyrazin-2-yl)piperidin-4-ol]
0.1 to 1	> 100	Cc1nc(-c2cn(C)nc2C)c(F)c(N2CCC(O)(c3ccc(F)c(F)c3)CC2)n1 [Example 91, 4-(3,4-difluorophenyl)-1-(6-(1,3-dimethyl-1H-pyrazol-4-yl)-5-fluoro-2-methylpyrimidin-4-yl)piperidin-4-ol]
0.1 to 1	> 100	Cc1cc(C2(O)CCN(c3cncc(-c4cn(C)nc4C)n3)CC2)ccc1F [Example 92, 1-(6-(1,3-dimethyl-1H-pyrazol-4-yl)pyrazin-2-yl)-4-(4-fluoro-3-methylphenyl)piperidin-4-ol]
0.1 to 1	> 100	Cc1nn(C)cc1-c1cc(C(N)=O)cc(N2CCC(O)(c3cc(F)c(F)c(F)c3)CC2)n1 [Example 93, 2-(1,3-dimethyl-1H-pyrazol-4-yl)-6-(4-hydroxy-4-(3,4,5-trifluorophenyl)piperidin-1-yl)isonicotinamide]
0.1 to 1	> 100	Cc1nn(C)cc1-c1cc(C(N)=O)cc(N2CCC(O)(c3ccc(F)c(Cl)c3)CC2)n1 [Example 94, 2-(4-(3-chloro-4-fluorophenyl)-4-hydroxypiperidin-1-yl)-6-(1,3-dimethyl-1H-pyrazol-4-yl)isonicotinamide]
1 to 10	> 100	Cc1nn(C)cc1-c1nnc(N2CCC(O)(c3ccc(F)c(F)c3)CC2)s1 [Example 95, 4-(3,4-difluorophenyl)-1-(5-(1,3-dimethyl-1H-pyrazol-4-yl)-1,3,4-thiadiazol-2-yl)piperidin-4-ol]
0.1 to 1	> 100	Cc1nn(C)cc1-c1nsc(N2CCC(O)(c3ccc(F)c(F)c3)CC2)n1 [Example 96, 4-(3,4-difluorophenyl)-1-(3-(1,3-dimethyl-1H-pyrazol-4-yl)-1,2,4-thiadiazol-5-yl)piperidin-4-ol]
1 to 10	> 100	Cc1nn(C)cc1-c1csc(N2CCC(O)(c3ccc(F)c(F)c3)CC2)n1 [Example 97, 4-(3,4-difluorophenyl)-1-(4-(1,3-dimethyl-1H-pyrazol-4-yl)thiazol-2-yl)piperidin-4-ol]
0.1 to 1	> 100	Cc1nn(C)cc1-c1nc(N2CCC(O)(c3ccc(F)c(F)c3)CC2)sc1C(N)=O [Example 98, 2-(4-(3,4-difluorophenyl)-4-hydroxypiperidin-1-yl)-4-(1,3-dimethyl-1H-pyrazol-4-yl)thiazole-5-carboxamide]
0.1 to 1	> 100	Cc1nn(C)cc1-c1c[nH]c(=O)c(N2CCC(O)(c3ccc(F)c(F)c3)CC2)n1 [Example 99, 3-(4-(3,4-difluorophenyl)-4-hydroxypiperidin-1-yl)-5-(1,3-dimethyl-1H-pyrazol-4-yl)pyrazin-2(1H)-one]
